The values below come from patent US20140315883A1, “6H-IMIDAZO[1,5-a]PYRROLO[2,3-e]PYRAZINE COMPOUNDS” (ABBVIE INC., priority 2013, published 2014).

For this test, the target named is T1, Syk (Homo sapiens, UniProt P43405).
T1 construct: Purified Syk catalytic domain (aa 356-635 with a C-terminal His-tag purified in-house); His-tag (C); made in house
Put plainly: In vitro Syk kinase activity measured by trFRET. The format is biochemical. Conditions: Syk catalytic domain, 0.001 mM ATP. The procedure: In Vitro Syk Kinase Activity Measured by Time-Resolved Fluorescence Resonance Energy Transfer (trFRET)
After about 60 min incubation at rt, the reaction was quenched by addition of EDTA (final concentration: 100 mM) and developed by addition of revelation reagents (final approximate concentrations: 30 mM HEPES pH 7.0, 0.06% BSA, 0.006% Tween-20, 0.24 M KF, 80 ng/mL PT66K (europium labeled anti-phosphotyrosine antibody cat #61T66KLB Cisbio, Bedford, Mass.) and 0.6 μg/mL SAXL (Phycolink streptavidin-allophycocyanin acceptor, cat #PJ25S, Prozyme, San Leandro, Calif.). The developed reaction was incubated in the dark either at about 4° C. for about 14 h or for about 60 min at rt, then read via a time-resolved fluorescence detector (Rubystar, BMG) using a 337 nm laser for excitation and monitoring emission wavelengths at 665 nm. Within the linear range of the assay, the observed signal at 665 nm was directly related to phosphorylated product and can be used to calculate the IC50 values.

pIC50: −log10 of the molar value.

Turning to `COc1ccc(-c2nc([C@H]3C[C@@H](O)CN3C(C)=O)n3c2cnc2[nH]ccc23)cc1` [Example #F.1.4, 1-((2R,4R)-4-hydroxy-2-(3-(4-methoxyphenyl)-6H-imidazo[1,5-a]pyrrolo[2,3-e]pyrazin-1-yl)pyrrolidin-1-yl)ethanone], the pIC50 was 7.52 to 8.00.
To `CC(=O)N1C[C@H](O)C[C@@H]1c1nc(-c2ccc(C3(C)COC3)cc2)c2cnc3[nH]ccc3n12` [A.1.6] belongs greater than 8.00; to `CCNc1ccc(-c2nc([C@H]3C[C@@H](O)CN3C(C)=O)n3c2cnc2[nH]ccc23)cc1` [Example #F.1, 1-((2R,4R)-2-(3-(4-(ethylamino)phenyl)-6H-imidazo[1,5-a]pyrrolo[2,3-e]pyrazin-1-yl)-4-hydroxypyrrolidin-1-yl)ethanone], 7.52 to 8.00; to `CC(=O)N1C[C@H](O)C[C@@H]1c1nc(-c2ccc(OCC(F)(F)F)cc2)c2cnc3[nH]ccc3n12` [Example #9, 1-((2R,4R)-4-Hydroxy-2-(3-(4-(2,2,2-trifluoroethoxy)phenyl)-6H-imidazo[1,5-a]pyrrolo[2,3-e]pyrazin-1-yl)pyrrolidin-1-yl)ethanone], 7.00 to 7.52.
To `CC(=O)N1C[C@H](O)C[C@@H]1c1nc(-c2ccc(N3CCOC(C)C3)cc2)c2cnc3[nH]ccc3n12` (stereo partly drawn) [F.1.7, 1-((2R,4R)-4-hydroxy-2-(3-(4-(2-methylmorpholino)phenyl)-6H-imidazo[1,5-a]pyrrolo[2,3-e]pyrazin-1-yl)pyrrolidin-1-yl)ethanone] belongs greater than 8.00; to `CC(=O)N1C[C@H](O)C[C@@H]1c1nc(-c2ccc(OC3CC3)cc2)c2cnc3[nH]ccc3n12` [F.1.31], 7.52 to 8.00.
To `CC(=O)N1C[C@H](O)C[C@@H]1c1nc(-c2ccc3c(c2)NCCC3)c2cnc3[nH]ccc3n12` [F.1.30, 1-((2R,4R)-4-hydroxy-2-(3-(1,2,3,4-tetrahydroquinolin-7-yl)-6H-imidazo[1,5-a]pyrrolo[2,3-e]pyrazin-1-yl)pyrrolidin-1-yl)ethanone] belongs 7.52 to 8.00; to `CC(=O)N1C[C@H](O)C[C@@H]1c1nc(-c2ccc3c(c2)OCCO3)c2cnc3[nH]ccc3n12` [F.1.6, 1-((2R,4R)-2-(3-(2,3-dihydrobenzo[b][1,4]dioxin-6-yl)-6H-imidazo[1,5-a]pyrrolo[2,3-e]pyrazin-1-yl)-4-hydroxypyrrolidin-1-yl)ethanone], 7.00 to 7.52.
`COc1ccc(-c2nc([C@H]3C[C@@H](O)CN3C(C)=O)n3c2cnc2[nH]cc(C)c23)cc1` [F.1.14] gave a pIC50 of 7.00 to 7.52.
The result for `COCc1ccc(-c2nc([C@H]3C[C@@H](O)CN3C(C)=O)n3c2cnc2[nH]ccc23)cc1` [Example #7, 1-((2R,4R)-4-Hydroxy-2-(3-(4-(methoxymethyl)phenyl)-6H-imidazo[1,5-a]pyrrolo[2,3-e]pyrazin-1-yl)pyrrolidin-1-yl)ethanone] reads 7.00 to 7.52; that for `CC(=O)N1C[C@H](O)C[C@@H]1c1nc(-c2ccc(C(F)F)cc2)c2cnc3[nH]ccc3n12` [A.1.5, 1-((2R,4R)-2-(3-(4-(difluoromethyl)phenyl)-6H-imidazo[1,5-a]pyrrolo[2,3-e]pyrazin-1-yl)-4-hydroxypyrrolidin-1-yl)ethanone], 7.00 to 7.52; that for `CC(=O)N1C[C@H](O)C[C@@H]1c1nc(-c2ccsc2)c2cnc3[nH]ccc3n12` [A.1.1], 7.52 to 8.00.
To `CNc1ccc(-c2nc([C@H]3C[C@@H](O)CN3C(C)=O)n3c2cnc2[nH]ccc23)cc1` [Example #1, 1-((2R,4R)-4-Hydroxy-2-(3-(4-(methylamino)phenyl)-6H-imidazo[1,5-a]pyrrolo[2,3-e]pyrazin-1-yl)pyrrolidin-1-yl)ethanone] belongs 7.52 to 8.00; to `CC(=O)N1C[C@H](O)C[C@@H]1c1nc(-c2csc(CO)c2)c2cnc3[nH]ccc3n12` [D.1.2, 1-((2R,4R)-4-hydroxy-2-(3-(5-(hydroxymethyl)thiophen-3-yl)-6H-imidazo[1,5-a]pyrrolo[2,3-e]pyrazin-1-yl)pyrrolidin-1-yl)ethanone], 7.52 to 8.00; to `CC(=O)N1C[C@H](O)C[C@@H]1c1nc(-c2ccc(OCCn3nccn3)cc2)c2cnc3[nH]ccc3n12` [A.1.3, 1-((2R,4R)-2-(3-(4-(2-(2H-1,2,3-triazol-2-yl)ethoxy)phenyl)-6H-imidazo[1,5-a]pyrrolo[2,3-e]pyrazin-1-yl)-4-hydroxypyrrolidin-1-yl)ethanone], 7.00 to 7.52.
The result for `CC(=O)N1C[C@H](O)C[C@@H]1c1nc(-c2cnc(C(C)(C)C)s2)c2cnc3[nH]ccc3n12` [Example #4, 1-((2R,4R)-2-(3-(2-(tert-Butyl)thiazol-5-yl)-6H-imidazo[1,5-a]pyrrolo[2,3-e]pyrazin-1-yl)-4-hydroxypyrrolidin-1-yl)ethanone] reads 7.00 to 7.52; that for `CC(=O)N1C[C@H](O)C[C@@H]1c1nc(-c2ccc(Cn3nccn3)cc2)c2cnc3[nH]ccc3n12` [Example #8, 1-((2R,4R)-2-(3-(4-((2H-1,2,3-Triazol-2-yl)methyl)phenyl)-6H-imidazo[1,5-a]pyrrolo[2,3-e]pyrazin-1-yl)-4-hydroxypyrrolidin-1-yl)ethanone], 7.00 to 7.52.
Consider `CCOc1ccc(-c2nc([C@H]3C[C@@H](O)CN3C(C)=O)n3c2cnc2[nH]ccc23)cc1` [A.1.2, 1-((2R,4R)-2-(3-(4-ethoxyphenyl)-6H-imidazo[1,5-a]pyrrolo[2,3-e]pyrazin-1-yl)-4-hydroxypyrrolidin-1-yl)ethanone], for which the pIC50 was 7.52 to 8.00.
To `COc1ccc(-c2nc([C@H]3C[C@@H](O)CN3C(C)=O)n3c2cnc2[nH]ccc23)cc1C` [F.1.22, 1-((2R,4R)-4-hydroxy-2-(3-(4-methoxy-3-methylphenyl)-6H-imidazo[1,5-a]pyrrolo[2,3-e]pyrazin-1-yl)pyrrolidin-1-yl)ethanone] belongs 7.52 to 8.00; to `CC(=O)N1C[C@H](O)C[C@@H]1c1nc(-c2ccc(N3CC(F)(F)C3)cc2)c2cnc3[nH]ccc3n12` [F.1.9, 1-((2R,4R)-2-(3-(4-(3,3-difluoroazetidin-1-yl)phenyl)-6H-imidazo[1,5-a]pyrrolo[2,3-e]pyrazin-1-yl)-4-hydroxypyrrolidin-1-yl)ethanone], greater than 8.00.
The result for `CC(=O)N1C[C@H](O)C[C@@H]1c1nc(-c2ccc(OC(C)C)cc2)c2cnc3[nH]ccc3n12` [F.1.23, 1-((2R,4R)-4-hydroxy-2-(3-(4-isopropoxyphenyl)-6H-imidazo[1,5-a]pyrrolo[2,3-e]pyrazin-1-yl)pyrrolidin-1-yl)ethanone] reads 7.52 to 8.00; that for `CC(=O)N1C[C@H](O)C[C@@H]1c1nc(-c2ccc(N3CCOCC3)cc2)c2cnc3[nH]ccc3n12` [F.1.17, 1-((2R,4R)-4-hydroxy-2-(3-(4-morpholinophenyl)-6H-imidazo[1,5-a]pyrrolo[2,3-e]pyrazin-1-yl)pyrrolidin-1-yl)ethanone], greater than 8.00; that for `CC(=O)N1C[C@H](O)C[C@@H]1c1nc(-c2ccc(OCC3CC3)cc2)c2cnc3[nH]ccc3n12` [D.1.3, 1-((2R,4R)-2-(3-(4-(cyclopropylmethoxy)phenyl)-6H-imidazo[1,5-a]pyrrolo[2,3-e]pyrazin-1-yl)-4-hydroxypyrrolidin-1-yl)ethanone], 7.52 to 8.00.
As for `CO[C@H](C)c1ccc(-c2nc([C@H]3C[C@@H](O)CN3C(C)=O)n3c2cnc2[nH]ccc23)cc1` [F.1.2, 1-((2R,4R)-4-hydroxy-2-(3-(4-((R)-1-methoxyethyl)phenyl)-6H-imidazo[1,5-a]pyrrolo[2,3-e]pyrazin-1-yl)pyrrolidin-1-yl)ethanone], the pIC50 was 7.52 to 8.00.
The result for `CC(=O)N1C[C@H](O)C[C@@H]1c1nc(-c2ccc3c(c2)NCCO3)c2cnc3[nH]ccc3n12` [F.1.29, 1-((2R,4R)-2-(3-(3,4-dihydro-2H-benzo[b][1,4]oxazin-6-yl)-6H-imidazo[1,5-a]pyrrolo[2,3-e]pyrazin-1-yl)-4-hydroxypyrrolidin-1-yl)ethanone] reads 7.52 to 8.00; that for `CC(=O)N1C[C@H](O)C[C@@H]1c1nc(-c2ccc(N3CCC(F)(F)CC3)cc2)c2cnc3[nH]ccc3n12` [F.1.8, 1-((2R,4R)-2-(3-(4-(4,4-difluoropiperidin-1-yl)phenyl)-6H-imidazo[1,5-a]pyrrolo[2,3-e]pyrazin-1-yl)-4-hydroxypyrrolidin-1-yl)ethanone], greater than 8.00.
To `COc1ccc(-c2nc([C@H]3C[C@@H](O)CN3C(C)=O)n3c2cnc2[nH]ccc23)cc1F` [F.1.26, 1-((2R,4R)-2-(3-(3-fluoro-4-methoxyphenyl)-6H-imidazo[1,5-a]pyrrolo[2,3-e]pyrazin-1-yl)-4-hydroxypyrrolidin-1-yl)ethanone] belongs 7.00 to 7.52; to “(2R,4R)-2-(3-(chroman-6-yl)-6H-imidazo[1,5-a]pyrrolo[2,3-e]pyrazin-1-yl)-4-hydroxypyrrolidine-1-carboxamide [Example #6]”, 7.52 to 8.00.
To `CC(=O)N1C[C@H](O)C[C@@H]1c1nc(-c2ccc3c(c2)CCCO3)c2cnc3[nH]ccc3n12` [F.1.19, 1-((2R,4R)-2-(3-(chroman-6-yl)-6H-imidazo[1,5-a]pyrrolo[2,3-e]pyrazin-1-yl)-4-hydroxypyrrolidin-1-yl)ethanone] belongs 7.52 to 8.00.
`CC(=O)N1C[C@H](O)C[C@@H]1c1nc(-c2ccc3c(c2)OCO3)c2cnc3[nH]ccc3n12` [F.1.24, 1-((2R,4R)-2-(3-(benzo[d][1,3]dioxol-5-yl)-6H-imidazo[1,5-a]pyrrolo[2,3-e]pyrazin-1-yl)-4-hydroxypyrrolidin-1-yl)ethanone] gave a negative logarithm of the IC50 (pIC50) of less than 7.00.
